This note sets out measurements from patent publication US20230002408A1, “HETEROARYLDIHYDROPYRIMIDINE DERIVATIVES AND METHODS OF TREATING HEPATITIS B INFECTIONS” (JANSSEN PHARMACEUTICA NV, priority 2019, published 2023).

The test system of one data set is HepG2.2.15 cells. The experiment in a line: Cytotoxicity determination in HepG2.2.15 cells (CCK-8 cell viability). It counts as cell-based. The settings on record: 6 days treatment, CCK-8, highest concentration 100 uM. Here is the method:
(§1) HepG2.2.15 (the HepG2.2.15 cell line can be produced by transfection of the HepG2 cell line as described in Sells, Chen, and Acs 1987 (Proc. Natl. Acad. Sci. USA 84: 1005-1009), and the HepG2 cell line is available from ATCC® under number HB-8065™).
(§2) HepG2.2.15 cells were plated into 96-well plate in 2% FBS culture medium at the density of 40,000 cells/well and 5,000 cells/well for HBV inhibitory activity and cytotoxicity determination, respectively. After incubation at 37° C., 5% CO2 overnight, cells were treated with medium containing compounds for 6 days with medium and compounds refreshed after 3 days of treatment. Each compound was tested in a 1:3 serial dilutions at 8 different concentrations in triplicate. The highest concentration of the compounds was 10 uM or 1 uM for anti-HBV activity assay and 100 uM for cytotoxicity determination. Cell viability was determined by CCK-8 assay. After 6 days of compounds treatment, 20 μl CCK-8 reagents were added to each well of cytotoxicity assay plates. Cell plates were incubated at 37° C., 5% CO2 for 2.5 h. The absorbance at 450 nm wavelength and the absorbance at 630 nm wavelength as reference was measured.
(§3) EC50 and CC50 values are calculated by the GRAPHPAD PRISM software.

A further data set relates to HBV. The experiment in a line: Anti-viral assay in HepG2.2.15 cells: HBV DNA in culture medium by qPCR. Format: cell-based. The following applies: HepG2.2.15 cells, 6 days treatment, HBV DNA in culture medium by real-time PCR; read-out: EC50. Here is the method:
as §1, §2
The change of HBV DNA level induced by the compounds was assessed by quantitative real-time polymerase chain reaction (qPCR). Briefly, the HBV DNA in the culture medium was extracted using QlAamp 96 DNA Blood Kit according to the manual and then quantified by real-time PCR assay using the primers and probe in the table 1 below.
as §3

Where only a bound is given, the exact number is not on record here.

Usually CC50 stands for the concentration that lowers cell viability or growth by half. As a reminder, the EC50 is the concentration at which the effect is half-maximal. In the data set with HepG2.2.15 cells, `COC(=O)C1=C(CN2CCO[C@H]3CN(CC(C)(C)C(=O)O)C(=O)[C@H]32)NC(c2nccs2)=N[C@H]1c1cccc(F)c1Cl` (single isomer, unassigned) [Compound I-24A, 3-((4aS*,7aS*)-4-4(R*)-6-(2-chloro-3-fluorophenyl)-5-(methoxycarbonyl)-2-(thiazol-2-yl)-3,6-dihydropyrimidin-4-yl)methyl)-5-oxohexahydropyrrolo[3,4-b][1,4]oxazin-6(2H)-yl)-2,2-dimethylpropanoic acid] returned a CC50 greater than 100 µM. The EC50 in the data set with HBV was determined as 14 nM.
